From PubChem BioAssay AID342 (DTP/NCI, 2004) come the findings set out here.

This assay relates to Swiss mice, Sarcoma 180 sc, mean tumor weight T/C. In words: NCI In Vivo Anticancer Drug Screen. Data for tumor model Sarcoma 180 (subcutaneous) in Swiss mice. To be noted: endpoint: mean tumor weight, higher = larger tumour. In a few lines: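 Mice bearing transplanted tumors were treated with compound, and survival or tumor size was measured. Values are expressed as the treated-group measurement (T) divided by the vehicle-treated control measurement (C).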

Where [1] appears, read: dose: 62.5 mg/kg/injection, schedule: Q#A X014 (ip), vehicle: carboxymethylcellulose (CMC).
Setting [2] is: dose: 125.0 mg/kg/injection, schedule: Q#A X014 (ip), vehicle: carboxymethylcellulose (CMC).
Setting [3] is: dose: 250.0 mg/kg/injection, schedule: Q#A X014 (ip), vehicle: carboxymethylcellulose (CMC).

Each structure is given as a SMILES string. “And” between values parts separate entries of the source, which are not always exact repeats. Equal values may be shown once.

Broadly, the T/C is the result in the treated group divided by that in the control group, in per cent. On to `Nc1nc(=S)c2ncn(C3OC(CO)C(O)C3O)c2[nH]1` (centres undefined), for which the T/C reads like this: (dose: 0.62 mg/kg/injection, schedule: Q#A X014 (ip), vehicle: carboxymethylcellulose (CMC)) 86 % of control; (dose: 1.25 mg/kg/injection, schedule: Q#A X014 (ip), vehicle: carboxymethylcellulose (CMC)) 91 % of control; (dose: 1.3 mg/kg/injection, schedule: Q#A X014 (ip), vehicle: carboxymethylcellulose (CMC)) 86 % of control and 95 % of control; (dose: 2.0 mg/kg/injection, schedule: Q#A X014 (ip), vehicle: carboxymethylcellulose (CMC)) 83 % of control and 94 % of control; (dose: 2.5 mg/kg/injection, schedule: Q#A X014 (ip), vehicle: carboxymethylcellulose (CMC)) 86 % of control; (dose: 2.65 mg/kg/injection, schedule: Q#A X014 (ip), vehicle: carboxymethylcellulose (CMC)) 51 % of control and 74 % of control. The T/C (dose: 5.0 mg/kg/injection, schedule: Q#A X014 (ip), vehicle: carboxymethylcellulose (CMC)) was 90 % of control.

For `O=C(O)CCCc1ccc(N(CCCl)CCCl)cc1`, the T/C (dose: 1.93 mg/kg/injection, schedule: Q01DX007 (ip), vehicle: carboxymethylcellulose (CMC)) is 49 % of control; the T/C (dose: 2.62 mg/kg/injection, schedule: Q#A X014 (ip), vehicle: carboxymethylcellulose (CMC)) was 99 % of control; the T/C (dose: 3.01 mg/kg/injection, schedule: Q01DX007 (ip), vehicle: carboxymethylcellulose (CMC)) was 88 % of control; the T/C (dose: 3.85 mg/kg/injection, schedule: Q01DX007 (ip), vehicle: carboxymethylcellulose (CMC)) was 41 % of control; the T/C (dose: 5.25 mg/kg/injection, schedule: Q#A X014 (ip), vehicle: carboxymethylcellulose (CMC)) was 69 % of control; the T/C (dose: 5.6 mg/kg/injection, schedule: Q01DX007 (ip), vehicle: carboxymethylcellulose (CMC)) was 71 % of control. For the same compound, the T/C is 86 % of control (dose: 6.03 mg/kg/injection, schedule: Q01DX007 (ip), vehicle: carboxymethylcellulose (CMC)); 52 % of control and 57 % of control (dose: 7.0 mg/kg/injection, schedule: Q01DX007 (ip), vehicle: carboxymethylcellulose (CMC)); 37 % of control (dose: 7.7 mg/kg/injection, schedule: Q01DX007 (ip), vehicle: carboxymethylcellulose (CMC)); 63 % of control (dose: 9.33 mg/kg/injection, schedule: Q01DX007 (ip), vehicle: carboxymethylcellulose (CMC)); 60 % of control (dose: 10.5 mg/kg/injection, schedule: Q01DX007 (ip), vehicle: carboxymethylcellulose (CMC)); 18 % of control (dose: 10.5 mg/kg/injection, schedule: Q#A X014 (ip), vehicle: carboxymethylcellulose (CMC)). Also, the T/C was 58 % of control (dose: 12.05 mg/kg/injection, schedule: Q01DX007 (ip), vehicle: carboxymethylcellulose (CMC)); 23 % of control and 48 % of control (dose: 14.0 mg/kg/injection, schedule: Q01DX007 (ip), vehicle: carboxymethylcellulose (CMC)).

In the case of `CCOc1ccc2nc(S(N)(=O)=O)sc2c1`, the T/C was 78 % of control (dose: 25.0 mg/kg/injection, schedule: Q01DX007 (ip), vehicle: carboxymethylcellulose (CMC)); 70 % of control (dose: 29.0 mg/kg/injection, schedule: Q01DX007 (ip), vehicle: carboxymethylcellulose (CMC)); 22 % of control (dose: 44.0 mg/kg/injection, schedule: Q01DX007 (ip), vehicle: carboxymethylcellulose (CMC)); 29 % of control and 48 % of control (dose: 49.5 mg/kg/injection, schedule: Q#A X014 (ip), vehicle: methylcellulose (MC)); 39 % of control (dose: 50.0 mg/kg/injection, schedule: Q01DX007 (ip), vehicle: carboxymethylcellulose (CMC)); 51 % of control (dose: 66.0 mg/kg/injection, schedule: Q01DX007 (ip), vehicle: carboxymethylcellulose (CMC)). In addition, the T/C is 13 % of control and 22 % of control (dose: 74.0 mg/kg/injection, schedule: Q#A X014 (ip), vehicle: methylcellulose (MC)); 43 % of control (dose: 99.0 mg/kg/injection, schedule: Q01DX007 (ip), vehicle: carboxymethylcellulose (CMC)); 34 % of control (dose: 100.0 mg/kg/injection, schedule: Q01DX007 (ip), vehicle: carboxymethylcellulose (CMC)).

As for `C=CC1CN2CCC1CC2C(O)c1ccnc2ccc(OC)cc12` (centres undefined), the T/C is, setting by setting: (dose: 30.16 mg/kg/injection, schedule: Q01DX007 (ip), vehicle: other) 96 % of control; (dose: 31.25 mg/kg/injection, schedule: Q#A X014 (ip), vehicle: carboxymethylcellulose (CMC)) 101 % of control; (dose: 47.12 mg/kg/injection, schedule: Q01DX007 (ip), vehicle: carboxymethylcellulose (CMC)) 92 % of control; (dose: 56.25 mg/kg/injection, schedule: Q01DX007 (ip), vehicle: carboxymethylcellulose (CMC)) 89 % of control; (dose: 60.32 mg/kg/injection, schedule: Q01DX007 (ip), vehicle: other) 75 % of control; under setting [1], 120 % of control. The T/C was 93 % of control (dose: 94.25 mg/kg/injection, schedule: Q01DX007 (ip), vehicle: carboxymethylcellulose (CMC)); 80 % of control (dose: 112.5 mg/kg/injection, schedule: Q01DX007 (ip), vehicle: carboxymethylcellulose (CMC)); 99 % of control (dose: 120.65 mg/kg/injection, schedule: Q01DX007 (ip), vehicle: other); 121 % of control under setting [2]; 78 % of control (dose: 188.5 mg/kg/injection, schedule: Q01DX007 (ip), vehicle: carboxymethylcellulose (CMC)); 118 % of control (dose: 225.0 mg/kg/injection, schedule: Q01DX007 (ip), vehicle: carboxymethylcellulose (CMC)). Further, the T/C was 97 % of control (dose: 241.3 mg/kg/injection, schedule: Q01DX007 (ip), vehicle: other) and 50 % of control under setting [3].

Take `O=C(O)c1ccc(N=NSc2ncnc3nc[nH]c23)cc1O`: the T/C (dose: 0.2 mg/kg/injection, schedule: Q01DX007 (ip), vehicle: carboxymethylcellulose (CMC)) is 101 % of control; the T/C (dose: 0.5 mg/kg/injection, schedule: Q01DX007 (ip), vehicle: carboxymethylcellulose (CMC)) was 115 % of control; the T/C (dose: 1.0 mg/kg/injection, schedule: Q01DX007 (ip), vehicle: carboxymethylcellulose (CMC)) is 108 % of control; the T/C (dose: 8.0 mg/kg/injection, schedule: Q01DX007 (ip), vehicle: carboxymethylcellulose (CMC)) is 9 % of control.

As for `COc1cc([C@@H]2c3cc4c(cc3[C@H](O)[C@H]3COC(=O)[C@H]23)OCO4)cc(OC)c1OC`, the T/C was 90 % of control (dose: 0.45 mg/kg/injection, schedule: Q01DX007 (ip), vehicle: carboxymethylcellulose (CMC)); 92 % of control (dose: 0.9 mg/kg/injection, schedule: Q01DX007 (ip), vehicle: carboxymethylcellulose (CMC)); 88 % of control (dose: 175.0 micrograms/kg/injection, schedule: Q01DX007 (ip), vehicle: carboxymethylcellulose (CMC)); 77 % of control (dose: 350.0 micrograms/kg/injection, schedule: Q01DX007 (ip), vehicle: carboxymethylcellulose (CMC)); 71 % of control (dose: 1400.0 micrograms/kg/injection, schedule: Q01DX007 (ip), vehicle: carboxymethylcellulose (CMC)).

`CCOc1ccc2c(c1)CC[C@@H]1[C@@H]2CC[C@@]2(C)[C@H]1CC[C@]2(C)O`: the T/C runs as follows: (dose: 0.5 mg/kg/injection, schedule: Q#A X014 (sc), vehicle: steriod suspending solution) 92 % of control; (dose: 5.0 mg/kg/injection, schedule: Q#A X014 (sc), vehicle: steriod suspending solution) 79 % of control; (dose: 50.0 mg/kg/injection, schedule: Q#A X014 (sc), vehicle: steriod suspending solution) 72 % of control.

With `C[C@@H]1C[C@@H]([C@H](O)CC2CC(=O)NC(=O)C2)C(=O)[C@@H](C)C1`, the T/C (dose: 3.0 mg/kg/injection, schedule: Q#A X014 (ip), vehicle: carboxymethylcellulose (CMC)) is 79 % of control and 92 % of control; the T/C (dose: 6.25 mg/kg/injection, schedule: Q#A X014 (ip), vehicle: carboxymethylcellulose (CMC)) is 77 % of control; the T/C (dose: 9.6 mg/kg/injection, schedule: Q01DX007 (ip), vehicle: carboxymethylcellulose (CMC)) was 85 % of control and 96 % of control and 106 % of control; the T/C (dose: 12.0 mg/kg/injection, schedule: Q01DX007 (ip), vehicle: carboxymethylcellulose (CMC)) is 100 % of control (2×) and 122 % of control; the T/C (dose: 12.0 mg/kg/injection, schedule: Q#A X014 (ip), vehicle: carboxymethylcellulose (CMC)) is 38 % of control and 63 % of control; the T/C (dose: 12.5 mg/kg/injection, schedule: Q#A X014 (ip), vehicle: carboxymethylcellulose (CMC)) was 68 % of control. Under “dose: 24.0 mg/kg/injection, schedule: Q01DX007 (ip), vehicle: carboxymethylcellulose (CMC)”, the T/C is 58 % of control and 60 % of control and 65 % of control.

`O=c1cn[nH]c(=O)[nH]1`: the T/C reads like this: under setting [1], 103 % of control; under setting [2], 77 % of control; under setting [3], 73 % of control; (dose: 500.0 mg/kg/injection, schedule: Q#A X014 (ip), vehicle: carboxymethylcellulose (CMC)) 45 % of control.

Take `NC(=O)c1[nH]cnc1/N=N/N1CCCC1`: the T/C by setting is: under setting [1], 73 % of control; under setting [2], 107 % of control.
